In PubChem BioAssay AID248 (DTP/NCI, 2004):
Toxic doses and inconclusive results are not listed. No stated cut-off is given here; in the data, active means T/C of 150% or more; inactive means T/C below 125%.

Tested on: L1210 leukemia ip in BDF1 mice, survival T/C
Assay: NCI In Vivo Anticancer Drug Screen. Data for tumor model L1210 Leukemia (intraperitoneal) in B6D2F1 (BDF1) mice
Settings: endpoint: mean survival time, higher = longer survival
Method in brief: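 Tumor was transplanted into mice, which were then dosed with test compound or vehicle alone. Survival was recorded for each group, and the treated figure was expressed relative to the control figure.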

[1] = dose: 100.0 mg/kg/injection, schedule: Q01DX001 (ip), vehicle: saline
[2] = dose: 200.0 mg/kg/injection, schedule: Q01DX001 (ip), vehicle: saline
[3] = dose: 400.0 mg/kg/injection, schedule: Q01DX001 (ip), vehicle: saline
[4] = dose: 100.0 mg/kg/injection, schedule: Q01DX001 (ip), vehicle: Klucel (hydroxypropylcellulose) (HPC)
[5] = dose: 100.0 mg/kg/injection, schedule: Q01DX009 (ip), vehicle: Klucel (hydroxypropylcellulose) (HPC)
[6] = dose: 100.0 mg/kg/injection, schedule: Q04DX003 (ip), vehicle: Klucel (hydroxypropylcellulose) (HPC)
[7] = dose: 200.0 mg/kg/injection, schedule: Q01DX001 (ip), vehicle: Klucel (hydroxypropylcellulose) (HPC)
[8] = dose: 200.0 mg/kg/injection, schedule: Q01DX009 (ip), vehicle: Klucel (hydroxypropylcellulose) (HPC)
[9] = dose: 200.0 mg/kg/injection, schedule: Q04DX003 (ip), vehicle: Klucel (hydroxypropylcellulose) (HPC)
[10] = dose: 400.0 mg/kg/injection, schedule: Q01DX001 (ip), vehicle: Klucel (hydroxypropylcellulose) (HPC)
[11] = dose: 400.0 mg/kg/injection, schedule: Q01DX009 (ip), vehicle: Klucel (hydroxypropylcellulose) (HPC)
[12] = dose: 400.0 mg/kg/injection, schedule: Q04DX003 (ip), vehicle: Klucel (hydroxypropylcellulose) (HPC)
[13] = dose: 100.0 mg/kg/injection, schedule: Q04DX002 (ip), vehicle: saline with Tween-80
[14] = dose: 200.0 mg/kg/injection, schedule: Q04DX002 (ip), vehicle: saline with Tween-80
[15] = dose: 400.0 mg/kg/injection, schedule: Q04DX002 (ip), vehicle: saline with Tween-80
[16] = dose: 100.0 mg/kg/injection, schedule: Q01DX009 (ip), vehicle: saline with Tween-80
[17] = dose: 200.0 mg/kg/injection, schedule: Q01DX009 (ip), vehicle: saline with Tween-80

Measured: T/C

COc1ccc(C2(OC)Oc3ccccc3-c3nc4ccccc4nc32)cc1 (centres undefined)
inactive: dose: 50.0 mg/kg/injection, schedule: Q01DX001 (ip), vehicle: saline 95 % of control | [1] 95 % of control | [2] 87 % of control | [3] 95 % of control

Cc1ccc(S(=O)(=O)Nc2ccccc2OS(=O)(=O)c2ccc(C)cc2)cc1
inactive: [4] 95 % of control | [5] 106 % of control | [6] 101 % of control | [7] 89 % of control | [8] 108 % of control | [9] 100 % of control | [10] 93 % of control | [11] 106 % of control | [12] 97 % of control

CC(C)(C)OOC(=O)CCCl
inactive: [13] 93 % of control | [14] 101 % of control | [15] 101 % of control

CCCCCCCCCCCCCCCCCCCC/C=C/C1CC(=O)OC1=O (centres undefined)
inactive: [5] 98 % of control | [6] 95 % of control | [8] 96 % of control | [9] 98 % of control | [11] 96 % of control | [12] 113 % of control

O=c1cc(O)c2ccccc2o1
inactive: dose: 50.0 mg/kg/injection, schedule: Q01DX009 (ip), vehicle: Klucel (hydroxypropylcellulose) (HPC) 104 % of control | [5] 93 % of control | [8] 90 % of control

O=C1C2CCCC3CCCC(C(=O)N1O)C32 (centres undefined)
inactive: [13] 104 % of control | [14] 99 % of control | [15] 86 % of control

COC(=O)C1C(c2ccc(-c3ccccc3)cc2)N1C1CCCCC1 (centres undefined)
inactive: [4] 96 % of control | [6] 104 % of control | [7] 95 % of control | [9] 107 % of control | [10] 93 % of control | [12] 98 % of control

Cc1cccc(C)c1OC(=O)Nc1cccc(Cl)c1
inactive: dose: 100.0 mg/kg/injection, schedule: Q04DX002 (ip), vehicle: Klucel (hydroxypropylcellulose) (HPC) 114 % of control | dose: 200.0 mg/kg/injection, schedule: Q04DX002 (ip), vehicle: Klucel (hydroxypropylcellulose) (HPC) 105 % of control | dose: 400.0 mg/kg/injection, schedule: Q04DX002 (ip), vehicle: Klucel (hydroxypropylcellulose) (HPC) 105 % of control

O=c1[nH]cnc2c1ncn2C1CCCCC1
inactive: dose: 23.12 mg/kg/injection, schedule: Q01DX Z (ip), vehicle: carboxymethylcellulose (CMC) 100 % of control | dose: 46.25 mg/kg/injection, schedule: Q01DX Z (ip), vehicle: carboxymethylcellulose (CMC) 105 % of control | dose: 46.25 mg/kg/injection, schedule: Q01DX Z (oral), vehicle: carboxymethylcellulose (CMC) 94 % of control | dose: 92.5 mg/kg/injection, schedule: Q01DX Z (ip), vehicle: carboxymethylcellulose (CMC) 96 % of control | dose: 92.5 mg/kg/injection, schedule: Q01DX Z (oral), vehicle: carboxymethylcellulose (CMC) 97 % of control | dose: 185.0 mg/kg/injection, schedule: Q01DX Z (ip), vehicle: carboxymethylcellulose (CMC) 100 % of control | dose: 185.0 mg/kg/injection, schedule: Q01DX Z (oral), vehicle: carboxymethylcellulose (CMC) 100 % of control | dose: 370.0 mg/kg/injection, schedule: Q01DX Z (oral), vehicle: carboxymethylcellulose (CMC) 97 % of control

CC(=O)c1cc(C)c(C)c(C)c1
inactive: [1] 96 % of control | [2] 96 % of control | [3] 91 % of control

CCCCCCC(C)CC(CCCCCC)NCCOC(=O)c1ccc([N+](=O)[O-])cc1 (centres undefined)
inactive: dose: 75.0 mg/kg/injection, schedule: Q01DX001 (ip), vehicle: saline 105 % of control | dose: 150.0 mg/kg/injection, schedule: Q01DX001 (ip), vehicle: saline 100 % of control | dose: 300.0 mg/kg/injection, schedule: Q01DX001 (ip), vehicle: saline 121 % of control

COc1ccc(/C=N/NC(=O)C[n+]2ccccc2)cc1
inactive: dose: 50.0 mg/kg/injection, schedule: Q01DX009 (ip), vehicle: saline with Tween-80 91 % of control | [16] 112 % of control | [17] 88 % of control

CP1(=O)CCC=C1C(=O)O (centres undefined)
inactive: [1] 95 % of control | [2] 95 % of control | [3] 95 % of control

O=[N+]([O-])c1ccccc1/C=C/C=N/N=C/c1ccccc1O
inactive: dose: 75.0 mg/kg/injection, schedule: Q01DX001 (ip), vehicle: other 94 % of control | dose: 150.0 mg/kg/injection, schedule: Q01DX001 (ip), vehicle: other 95 % of control | dose: 300.0 mg/kg/injection, schedule: Q01DX001 (ip), vehicle: other 88 % of control

CC1(C)N=C(N)N=C(N)N1c1ccccc1
inactive: dose: 12.0 mg/kg/injection, schedule: Q01DX009 (ip), vehicle: saline 104 % of control | dose: 12.0 mg/kg/injection, schedule: Q04DX003 (ip), vehicle: saline 97 % of control | dose: 25.0 mg/kg/injection, schedule: Q01DX009 (ip), vehicle: saline 99 % of control | dose: 25.0 mg/kg/injection, schedule: Q04DX003 (ip), vehicle: saline 101 % of control | dose: 50.0 mg/kg/injection, schedule: Q01DX009 (ip), vehicle: saline 98 % of control

Cc1cc2oc(/C=N/N3CCOCC3)c(C)c2cc1C
inactive: [5] 96 % of control | [6] 90 % of control | [8] 103 % of control | [9] 102 % of control | [11] 99 % of control | [12] 98 % of control

[Cl][Co][Cl].[NH-]CCC[NH-].[NH-]CCC[NH-]
inactive: dose: 100.0 mg/kg/injection, schedule: Q04DX003 (ip), vehicle: saline 109 % of control

Cc1ccc2[nH]c(=S)n(-c3ccccc3)c(=O)c2c1
inactive: [13] 91 % of control | [14] 91 % of control | [15] 91 % of control

CCN(CC)CCNc1ccc(N=Nc2cnc3ccccc3c2)c2ccccc12
inactive: dose: 1.12 mg/kg/injection, schedule: Q01DX009 (ip), vehicle: other 98 % of control | dose: 2.25 mg/kg/injection, schedule: Q01DX009 (ip), vehicle: other 92 % of control | dose: 4.5 mg/kg/injection, schedule: Q01DX009 (ip), vehicle: other 93 % of control | dose: 9.0 mg/kg/injection, schedule: Q01DX009 (ip), vehicle: other 97 % of control | dose: 100.0 mg/kg/injection, schedule: Q01DX001 (ip), vehicle: other 91 % of control | dose: 200.0 mg/kg/injection, schedule: Q01DX001 (ip), vehicle: other 91 % of control | dose: 400.0 mg/kg/injection, schedule: Q01DX001 (ip), vehicle: other 97 % of control

CC(=O)OC1C(SC(C)(C)C)C=CC(SC(C)(C)C)N1C(C)=O (centres undefined)
inactive: [5] 103 % of control | [8] 103 % of control | [11] 95 % of control

N#CCCn1cnc2c(N)ncnc21
inactive: [16] 96 % of control | dose: 100.0 mg/kg/injection, schedule: Q04DX003 (ip), vehicle: saline with Tween-80 103 % of control | [17] 96 % of control | dose: 200.0 mg/kg/injection, schedule: Q04DX003 (ip), vehicle: saline with Tween-80 103 % of control | dose: 400.0 mg/kg/injection, schedule: Q01DX009 (ip), vehicle: saline with Tween-80 91 % of control | dose: 400.0 mg/kg/injection, schedule: Q04DX003 (ip), vehicle: saline with Tween-80 104 % of control

O=C1c2ccccc2-c2nc3ncccc3nc21
inactive: [6] 101 % of control | [9] 98 % of control | [12] 98 % of control
